How the values were obtained:
[1] = test system: PLL-coated chips; assay: Binding of Jurkat cells to PLL-coated chips after blocking (z-Movi avidity, no target cells); assay type: cell-based
Procedure: (§1) z-Movi® chips (obtained and as available from LUMICKS (<https://lumicks.com/products/z-movi-cell-interaction-studies/>) were coated with Poly-L-Lysine (#P4707-50ML, Sigma) diluted 1:5 in PBS for 10 minutes at room temperature, or with human Fibronectin (#F0895, Sigma) at 0.1 mg/mL overnight at room temperature. The following day the target cells were seeded in serum free RPMI medium, incubated 1 h, and subsequently the medium replaced with complete RPMI medium. The chips were incubated for an additional hour before the blocking reaction. The effector cells were stained with CellTrace™ Far Red dye (Thermo Fisher Scientific) at 1 μM for 15 minutes in PBS at 37° C., then resuspended at 10 million/mL in complete medium and used for the avidity experiments. The stained effector cells (i.e. cells of interest) were introduced in the target cell-seeded flow cell, incubated for 5 minutes, and then a 1 to 1000 pN force ramp was applied throughout 2.5 minutes using z-Movi® operated with the Oceon V1.2 software. At the end of the avidity measurements, the monolayer was stained with a Trypan Blue solution to qualitatively assess the target cell viability. The avidity experiment analysis was performed using Oceon V1.2. […]

[2] = test system: human fibronectin-coated chips; assay: Binding of Jurkat cells to human fibronectin-coated chips after blocking (z-Movi avidity, no target cells); assay type: cell-based
Procedure: as §1

[3] = test system: Raji cells; assay: Avidity of UNT or FMC63-CAR Jurkat cells to Raji seeded PLL-coated chips after blocking; assay type: cell-based; settings: for percentage of effector cells bound to the target cells at the end of the force ramp (1000 pN) / difference in the positive/negative window: PLL; for percentage of effector cells bound to the target cells at the end of the force ramp (1000 pN): mean n=2; for difference in the positive/negative window: CAR minus UNT bound at 1000 pN, Raji; for binding of the CAR sample (cells bound) after blocking: FMC63 CAR Jurkat, from about 80% without blocking; for binding of the CAR sample (cells bound) after blocking / background binding of the UNT sample (cells bound) after blocking: Raji-seeded PLL chips; for background binding of the UNT sample (cells bound) after blocking: UNT Jurkat, from about 50% without blocking
Procedure: (§2) z-Movi® chips (obtained and as available from LUMICKS (<https://lumicks.com/products/z-movi-cell-interaction-studies/>) were coated with Poly-L-Lysine (#P4707-50ML, Sigma) diluted 1:5 in PBS for 10 minutes at room temperature, or with human Fibronectin (#F0895, Sigma) at 0.1 mg/mL overnight at room temperature. The following day the target cells were seeded in serum free RPMI medium, incubated 1 h, and subsequently the medium replaced with complete RPMI medium. The chips were incubated for an additional hour before the blocking reaction. The effector cells were stained with CellTrace™ Far Red dye (Thermo Fisher Scientific) at 1 μM for 15 minutes in PBS at 37° C., then resuspended at 10 million/mL in complete medium and used for the avidity experiments. The stained effector cells (i.e. cells of interest) were introduced in the target cell-seeded flow cell, incubated for 5 minutes, and then a 1 to 1000 pN force ramp was applied throughout 2.5 minutes using z-Movi® operated with the Oceon V1.2 software. At the end of the avidity measurements, the monolayer was stained with a Trypan Blue solution to qualitatively assess the target cell viability. The avidity experiment analysis was performed using Oceon V1.2.
(§3) The MS(PEG)4 or BS(PEG)5 (Thermo Fisher Scientific) (see FIG. 2) were dissolved in anhydrous DMSO (Merck) then diluted in PBS to obtain a final concentration of 5 mM or as otherwise indicated. The target cell-seeded chips (or coated only with PLL or fibronectin) were rinsed with PBS before introducing the blocking solution (or a PBS solution with DMSO as control sample). The chips were incubated for 15 minutes at room temperature and the reaction was stopped with TBS (50 mM Tris pH7.4, 150 mM NaCl). The chips were subsequently equilibrated with complete medium and used for avidity measurements. Furthermore, blocking was also tested with incubations of 1 hour with serum free RPMI medium, 20% fetal bovine serum (FBS), 50% FBS, 50% human serum (HS), 10% bovine serum albumin (BSA), NALM6 condition medium.
We next validated the use of NHS-based blockers to reduce background binding of the effector cells in the presence of the monolayer. We used as cells of interest a Jurkat cell line transduced to express the FMC63 Chimeric Antigen Receptor (CAR) or untransduced (UNT) as control cells. As target cells we used the Raji cell line, endogenously expressing the CD19 antigen, seeded on PLL coated chips.

[4] = test system: Raji cells; assay: Monolayer integrity/viability (Trypan Blue) of Raji seeded PLL-coated chips after blocking; assay type: cell-based; settings: Raji on PLL, vs DMSO vehicle
Procedure: as §1

[5] = test system: Raji cells; assay: Avidity of UNT or FMC63-CAR primary T cells to Raji seeded PLL-coated chips after blocking; assay type: cell-based
Procedure: Untransduced or FMC63-transduced primary CAR T cells were obtained from ProMab Biotechnologies Inc. (Anti-CD19-TF-CD28-CD3z (PMC-152)) propagated with CD3/CD28 dynabeads (Thermo Fisher Scientific) and 90 IU/mL of IL-2 (Miltenyi Biotec), or Untransduced or FMC63 CAR transduced Jurkat were used (Creative Biolabs).
as §2, §3
We then performed the experiments with the blocking agents with primary T cells expressing a FMC63 CAR (or not) layered on Raji cells. We observed that the observations made with Jurkat cells were recapitulated showing a considerable improvement of the negative/positive window on the chips subjected to the blocking reaction (FIG. 7).

[6] = test system: CD69 activation marker; assay: CD69 activation assay, Jurkat co-incubated with blocked Raji cells; assay type: cell-based; settings: 1:1, 4 h
Procedure: Target cells were treated with DMSO or blocking agent using the protocol above, resuspended at 1 million/mL in RPMI complete medium and mixed at 1:1 ratio with the indicated effector cells. For the IFNγ release assay the samples were incubated for 7 h in the incubator before spinning down and use of the supernatant to perform the ELISA (Biolegend, ELISA MAX™ Deluxe Set Human IFNγ). […]

[7] = test system: IFNγ; assay: IFNγ release assay (ELISA), primary T cells co-incubated with blocked Raji cells; assay type: cell-based, human; settings: 1:1, 7 h
Procedure: Target cells were treated with DMSO or blocking agent using the protocol above, resuspended at 1 million/mL in RPMI complete medium and mixed at 1:1 ratio with the indicated effector cells. For the IFNγ release assay the samples were incubated for 7 h in the incubator before spinning down and use of the supernatant to perform the ELISA (Biolegend, ELISA MAX™ Deluxe Set Human IFNγ). For the CD69 assay, the target and effector cells prepared as described above were co-incubated for 5 h in the incubator before being stained using anti-CD3 and anti-CD69 antibodies (clone SK7 and FN50, Biolegend).

[8] = test system: Raji cells; assay: Avidity of UNT or FMC63-CAR primary T cells to Raji covalent monolayer on PLL-coated chips; assay type: cell-based; settings: 10 mM crosslinker, mean n=2
Procedure: Untransduced or FMC63-transduced primary CAR T cells were obtained from ProMab Biotechnologies Inc. (Anti-CD19-TF-CD28-CD3z (PMC-152)) propagated with […] CD3/CD28 dynabeads (Thermo Fisher Scientific) and 90 IU/mL of IL-2 (Miltenyi Biotec). Raji cells were used as target cells. Primary CAR-T cells were cultured in RPMI+Glutamax supplemented with 50 μM β-Mercaptoethanol, 5% heat inactivated human serum, and Penicillin-Streptomycin.
z-Movi® chips (obtained and as available from LUMICKS) were coated with Poly-L-Lysine (#P4707-50ML, Sigma) diluted 1:5 in PBS for 10 minutes at room temperature. The following day the target cells were seeded in PBS, incubated 0.75 h, and subsequently the monolayers were left untreated or reacted with BS(PEG)9. For negative control the PLL coated chips were reacted with 5 mM MS(PEG)4 before seeding the Raji cells. The effector cells were stained with CellTrace™ Far Red dye (Thermo Fisher […] Scientific) at 1 μM for 15 minutes in PBS at 37° C., then resuspended at 10 million/mL in complete medium and used for the avidity experiments. The stained effector cells (i.e. cells of interest) were introduced in the target cell-seeded flow cell, incubated for 5 minutes, and then a 1 to 1000 pN force ramp was applied throughout 2.5 minutes using z-Movi® operated with the Oceon® V1.2 software. […]

[9] = test system: Hela-CD19 cells; assay: Avidity of UNT or FMC63-CAR Jurkat to Hela-CD19 seeded PLL-coated chips after blocking; assay type: cell-based; settings: Hela-CD19 on PLL, blocker 5 mM; for percentage of effector cells bound to the target cells at the end of the force ramp (1000 pN): mean n=2
Procedure: as §2
as §3, with “medium. […]” for “medium.”

[10] = test system: Hela-CD19 cells; assay: Avidity of UNT or FMC63-CAR Jurkat to Hela-CD19 seeded fibronectin-coated chips after blocking; assay type: cell-based; settings: Hela-CD19 on human fibronectin, blocker 5 mM; for percentage of effector cells bound to the target cells at the end of the force ramp (1000 pN): mean n=2
Procedure: as §2
as §3, with “medium. […]” for “medium.”

[11] = CAR Jurkat + Raji treated with 5 mM blocker 15 minutes
[12] = UNT Jurkat + Raji treated with 5 mM blocker 15 minutes

## O=C(CCOCCOCCOCCOCCOCCC(=O)ON1C(=O)CCC1=O)ON1C(=O)CCC1=O [BS(PEG)5]
[1]; blocking agent 1 mM
  percentage of Jurkat cells bound at the end (1000 pN) of the avidity measurement: 92.9%
[1]; blocking agent 5 mM
  percentage of Jurkat cells bound at the end (1000 pN) of the avidity measurement: 1.2%
[2]; blocking agent 1 mM
  percentage of bound Jurkat cells at the end of the force ramp (1000 pN): 52.8%
[2]; blocking agent 5 mM
  percentage of bound Jurkat cells at the end of the force ramp (1000 pN): 43.2%
[3]; CAR (FMC63-transduced) effector cells + Raji, blocker 4.5 mM
  percentage of effector cells bound to the target cells at the end of the force ramp (1000 pN): 78.3%
[3]; blocker 4.5 mM
  difference in the positive/negative window: 62.7%
[3]
  binding of the CAR sample (cells bound) after blocking: about 70%
  background binding of the UNT sample (cells bound) after blocking: about 20%
[3]; UNT (untransduced) effector cells + Raji, blocker 4.5 mM
  percentage of effector cells bound to the target cells at the end of the force ramp (1000 pN): 15.6%
[4]; blocker 4.5 mM
  monolayer integrity (confluency, cell morphology, staining): No differences in target cell monolayer confluency, cell morphology or staining could be detected
[5]; CAR primary T cells + Raji, blocker 4.5 mM, mean n=2 (FIG. 7A)
  percentage of effector cells bound to the target cells at the end of the force ramp (1000 pN): 66.3%
[5]; UNT primary T cells + Raji, blocker 4.5 mM, mean n=2 (FIG. 7A)
  percentage of effector cells bound to the target cells at the end of the force ramp (1000 pN): 39.9%
[6]; [11]
  percentage of CD69 positive cells: 30%
[6]; [12]
  percentage of CD69 positive cells: 0.6%
[7]; CAR primary T cells + Raji treated with 4.5 mM blocker 15 minutes
  amount of IFNγ in co-culture supernatants: 1633 pg/mL
[7]; UNT primary T cells + Raji treated with 4.5 mM blocker 15 minutes
  amount of IFNγ in co-culture supernatants: 11 pg/mL

## O=C(CCOCCOCCOCCOCCOCCOCCOCCOCCOCCC(=O)ON1C(=O)CCC1=O)ON1C(=O)CCC1=O [BS(PEG)9]
[8]; CAR primary T cells + Raji
  percentage of effector cells bound to the target cells at the end of the force ramp (1000 pN): 61.4%
[8]; UNT primary T cells + Raji
  percentage of effector cells bound to the target cells at the end of the force ramp (1000 pN): 10.3%

## COCCOCCOCCOCCC(=O)ON1C(=O)CCC1=O [MS(PEG)4]
[3]; CAR (FMC63-transduced) effector cells + Raji, blocker 5 mM
  percentage of effector cells bound to the target cells at the end of the force ramp (1000 pN): 84.7%
[3]; blocker 5 mM
  difference in the positive/negative window: 51.9%
[3]
  binding of the CAR sample (cells bound) after blocking: about 70%
  background binding of the UNT sample (cells bound) after blocking: about 20%
[3]; UNT (untransduced) effector cells + Raji, blocker 5 mM
  percentage of effector cells bound to the target cells at the end of the force ramp (1000 pN): 32.8%
[4]; blocker 5 mM
  monolayer integrity (confluency, cell morphology, staining): No differences in target cell monolayer confluency, cell morphology or staining could be detected
[5]; CAR primary T cells + Raji, mean n=3 (FIG. 7B)
  percentage of effector cells bound to the target cells at the end of the force ramp (1000 pN): 67.8%
[5]; UNT primary T cells + Raji, mean n=3 (FIG. 7B)
  percentage of effector cells bound to the target cells at the end of the force ramp (1000 pN): 42.6%
[9]; CAR Jurkat
  percentage of effector cells bound to the target cells at the end of the force ramp (1000 pN): 68%
[9]; control window 49.4%
  pos/neg window after the blocking reaction: 63%
[9]; UNT Jurkat
  percentage of effector cells bound to the target cells at the end of the force ramp (1000 pN): 5%
[10]; CAR Jurkat
  percentage of effector cells bound to the target cells at the end of the force ramp (1000 pN): 70.1%
[10]; control window 33.3%
  pos/neg window after the blocking reaction: 53.3%
[10]; UNT Jurkat
  percentage of effector cells bound to the target cells at the end of the force ramp (1000 pN): 16.8%
[6]; [11]
  percentage of CD69 positive cells: 27%
[6]; [12]
  percentage of CD69 positive cells: 0.8%

— patent US20250084371A1, “CELL MONOLAYER BLOCKING AGENTS AND USES THEREOF” (LUMICKS CA HOLDING B.V., priority 2021, published 2025)
